We go through 2 molecules from patent publication US7037913B2, “Bicyclo 4.4.0 antiviral derivatives” (priority 2002, dated 2006).

pEC50: −log10 of the molar value.

This experiment deals with HIV-1 single-round infectious reporter virus. As to the kind of experiment: Single-round infectious HIV-1 luciferase reporter virus infection of HeLa CD4 CCR5 cells. The class given is cell-based. As to conditions: Human immunodeficiency virus 1, HeLa-CD4/CCR5, 72 h, read-out: Group (EC50). The source says: The materials and experimental procedures used to obtain the results for representative compounds of Formula I reported in Tables 7–9 are described below.
• Virus production—Human embryonic Kidney cell line, 293, propagated in Dulbecco's Modified Eagle Medium (Life Technologies, Gaithersburg, Md.) containing 10% fetal Bovine serum (FBS, Sigma, St. Louis, Mo.). • Virus infection—Human epithelial cell line, HeLa, expressing the HIV-1 receptors CD4 and CCR5 was propagated in Dulbecco's Modified Eagle Medium (Life Technologies, Gaithersburg, Md.) containing 10% fetal Bovine serum (FBS, Sigma, St. Louis, Mo.) and supplemented with 0.2 mg/ml Geneticin (Life Technologies, Gaithersburg, Md.) and 0.4 mg/ml Zeocin (Invitrogen, Carlsbad, Calif.). • Virus—Single-round infectious reporter virus was produced by co-transfecting human embryonic Kidney 293 cells with an HIV-1 envelope DNA expression vector and a proviral cDNA containing an envelope deletion mutation and the luciferase reporter gene inserted in place of HIV-1 nef sequences (Chen et al, Ref. 41). […] Viral infection was monitored by measuring luciferase expression from viral DNA in the infected cells using a luciferase reporter gene assay kit (Roche Molecular Biochemicals, Indianapolis, Ind.). […] Luciferase activity was then quantified by measuring luminescence using a Wallac microbeta scintillation counter. • 5. […]

One may read the pEC50 as −log10 of the EC50, conventionally taken in molar units. Turning to `C[C@@H]1CN(C(=O)c2ccccc2)CCN1C(=O)C(F)(F)c1ccc2ccccc2c1` [Example 54], the pEC50 is greater than 6.00. Turning to `C[C@@H]1CN(C(=O)c2ccccc2)CCN1C(=O)C1(c2ccc3ccccc3c2)CC1` [Example 55], the pEC50 is greater than 6.00.
